Tests used:
TBK1 = target: T1, TBK1 (Homo sapiens, UniProt Q9UHD2); assay: TR-FRET enzymatic activity assay, TBK1; assay type: biochemical; further: full length recombinant TBK1 at 2.5 nM
T1 construct: TBK1 and IKKε were expressed and purified as full length recombinant proteins; made in house
T1 sequence (Q9UHD2 1-729): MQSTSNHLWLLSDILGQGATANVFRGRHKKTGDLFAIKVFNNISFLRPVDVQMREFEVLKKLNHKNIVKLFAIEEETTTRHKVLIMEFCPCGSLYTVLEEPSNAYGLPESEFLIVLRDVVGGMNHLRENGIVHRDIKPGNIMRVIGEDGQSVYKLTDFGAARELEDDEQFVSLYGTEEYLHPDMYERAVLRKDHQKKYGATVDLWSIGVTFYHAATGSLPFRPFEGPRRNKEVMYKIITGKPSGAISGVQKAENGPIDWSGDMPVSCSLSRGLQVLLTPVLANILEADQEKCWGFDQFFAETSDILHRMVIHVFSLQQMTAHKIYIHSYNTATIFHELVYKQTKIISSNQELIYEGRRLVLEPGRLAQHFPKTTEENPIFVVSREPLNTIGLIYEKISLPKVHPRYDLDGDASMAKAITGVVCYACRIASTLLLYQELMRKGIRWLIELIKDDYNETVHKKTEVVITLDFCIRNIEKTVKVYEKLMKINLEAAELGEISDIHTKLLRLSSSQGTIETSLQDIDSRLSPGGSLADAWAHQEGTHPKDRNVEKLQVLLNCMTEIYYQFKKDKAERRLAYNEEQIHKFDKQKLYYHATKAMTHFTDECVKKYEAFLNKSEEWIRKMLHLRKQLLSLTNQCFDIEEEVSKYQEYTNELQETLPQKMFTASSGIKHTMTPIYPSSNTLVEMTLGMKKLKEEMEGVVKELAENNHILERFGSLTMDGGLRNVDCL
Method: (§1) Biological Assay for TBK1 and IKKε:
(§2) Enzymatic activity of IKKε and TBK1 was measured using a homogeneous time resolved fluorescence resonance energy transfer (TR-FRET) assay that monitors enzyme dependent phosphorylation of a biotinylated serine/threonine peptide substrate. An increase in the amount of phosphorylated peptide results in an increase in TR-FRET signal. TBK1 and IKKε were expressed and purified as full length recombinant proteins. Detection reagents for the assay were purchased from Cisbio. […] After an assay reaction time of 240 minutes at 25° C., reactions were terminated with EDTA.
(§3) Amount of phosphorylated peptide was determined by the addition of 125 nM streptavidin XL665 and europium cryptate labeled anti-phospho monoclonal antibody and the resulting TR-FRET signal was recorded on an Envision plate reader (Ex: 340 nm; Em: 615/665 nm; 100 μs delay and 200 μs read window). Data was normalized based on a positive (1 μM Staurosporine) and negative (DMSO) controls and IC50 values calculated from the fit of the dose-response curves to a four-parameter equation. All IC50 values represent geometric mean values of a minimum of four determinations. These assays generally produced results within 3-fold of the reported mean.

IKKε = target: T2, IKKε (Homo sapiens, UniProt Q14164); assay: TR-FRET enzymatic activity assay, IKKε; assay type: biochemical; conditions: read-out: IKKϵ IC50; further: full length recombinant IKKε at 0.3 nM
T2 construct: TBK1 and IKKε were expressed and purified as full length recombinant proteins; made in house
T2 sequence (Q14164 1-716): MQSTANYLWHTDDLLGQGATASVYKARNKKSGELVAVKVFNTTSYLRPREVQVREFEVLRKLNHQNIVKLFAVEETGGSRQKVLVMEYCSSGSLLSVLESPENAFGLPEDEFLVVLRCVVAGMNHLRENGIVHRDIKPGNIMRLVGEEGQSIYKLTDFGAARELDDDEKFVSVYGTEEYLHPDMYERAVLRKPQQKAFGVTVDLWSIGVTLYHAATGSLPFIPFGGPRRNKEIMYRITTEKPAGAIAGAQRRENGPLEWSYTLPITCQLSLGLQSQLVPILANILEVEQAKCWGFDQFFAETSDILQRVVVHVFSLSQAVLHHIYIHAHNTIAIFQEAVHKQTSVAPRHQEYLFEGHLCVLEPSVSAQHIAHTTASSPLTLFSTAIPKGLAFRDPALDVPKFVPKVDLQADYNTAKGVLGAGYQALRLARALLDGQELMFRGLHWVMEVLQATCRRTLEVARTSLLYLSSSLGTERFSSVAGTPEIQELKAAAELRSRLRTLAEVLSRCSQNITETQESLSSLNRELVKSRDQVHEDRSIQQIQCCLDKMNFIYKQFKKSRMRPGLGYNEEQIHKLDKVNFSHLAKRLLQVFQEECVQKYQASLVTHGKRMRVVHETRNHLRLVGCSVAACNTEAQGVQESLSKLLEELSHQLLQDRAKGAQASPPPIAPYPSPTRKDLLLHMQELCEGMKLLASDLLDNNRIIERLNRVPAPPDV
Method: as §1
as §2, with “An increase in the amount of phosphorylated peptide results in an increase in TR-FRET signal.” left out
as §3, with “determinations.” for “determinations. These assays generally produced results within 3-fold of the reported mean.”

| SMILES | IC50 (TBK1) | IC50 (IKKε) |
| --- | --- | --- |
| CCOC(=O)[C@@H]1C[C@H]1C(=O)Nc1cc(-c2ccc(OC3CCOCC3)c(C#N)c2)ccn1 (relative stereo) [Example 50, Ethyl trans-2-((4-(3-cyano-4-((tetrahydro-2H-pyran-4-yl)oxy)phenyl)pyridin-2-yl)carbamoyl)cyclopropane-1-carboxylate] | 0.23 µM | 0.535 µM |
| Cn1ccnc1[C@@H]1C[C@H]1C(=O)Nc1cc(-c2ccc(O[C@H]3CCN(C(=O)CO)CC3(F)F)c(C#N)c2)ncn1 [Example 114, (1R,2R)—N-(6-(3-cyano-4-(((S)-3,3-difluoro-1-(2-hydroxyacetyl)piperidin-4-yl)oxy)phenyl)pyrimidin-4-yl)-2-(1-methyl-1H-imidazol-2-yl)cyclopropane-1-carboxamide] | 0.181 µM | 0.036 µM |
| N#Cc1cc(-c2ccnc(NC(=O)C3(F)CC3)c2)ccc1O[C@H]1CCN(C(=O)CO)C[C@H]1F [Example 78, N-(4-(3-Cyano-4-(((3R,4S)-3-fluoro-1-(2-hydroxyacetyl)piperidin-4-yl)oxy)phenyl)pyridin-2-yl)-1-fluorocyclopropane-1-carboxamide] | 0.4 µM | 0.294 µM |
| N#Cc1cc(-c2ccnc(NC(=O)[C@H]3C[C@@H]3C3CC3)c2)ccc1OC1CCOCC1 (relative stereo) [Example 88, (1,2-trans)-N-(4-(3-cyano-4-((tetrahydro-2H-pyran-4-yl)oxy)phenyl)pyridin-2-yl)-[1,1′-bi(cyclopropane)]-2-carboxamide] | 0.0588 µM | 0.314 µM |
| Cc1n[nH]c(C(=O)N2CC[C@H](Oc3ccc(-c4ccnc(NC(=O)C5CC5C)c4)cc3C#N)[C@H](F)C2)n1 (stereo partly drawn) [Example 75, N-(4-(3-Cyano-4-(((3R,4S)-3-fluoro-1-(3-methyl-1H-1,2,4-triazole-5-carbonyl)piperidin-4-yl)oxy)phenyl)pyridin-2-yl)-2-methylcyclopropane-1-carboxamide] | 0.0061 µM | 0.0071 µM |
| N#Cc1cc(-c2ccnc(NC(=O)C3CC3)c2)ccc1N1CC[C@@H](O)C1 [Example 17, (R)—N-(4-(3-cyano-4-(3-hydroxypyrrolidin-1-yl)phenyl)pyridin-2-yl)cyclopropanecarboxamide] | 0.0416 µM | 0.232 µM |
| CON(C)C(=O)[C@@H]1C[C@H]1C(=O)Nc1cc(-c2ccc(OC3CCOCC3)c(C#N)c2)ccn1 (relative stereo) [Example 38] | 0.305 µM | 0.253 µM |
| N#Cc1cc(-c2ccnc(NC(=O)C3CC3)c2)ccc1O[C@H]1CCN(C(=O)CO)C[C@H]1F [Example 8, N-(4-(3-cyano-4-(((3R,4S)-3-fluoro-1-(2-hydroxyacetyl)piperidin-4-yl)oxy)phenyl)pyridin-2-yl)cyclopropanecarboxamide] | 0.0104 µM | 0.0251 µM |
| Cn1cc([C@@H]2C[C@H]2C(=O)Nc2cc(-c3ccc(O[C@H]4CCN(C(=O)[C@@H](O)CO)C[C@H]4F)c(C#N)c3)ccn2)cn1 [Example 130, (1,2-Trans)-N-(4-(3-cyano-4-(((3R,4S)-1-((S)-2,3-dihydroxypropanoyl)-3-fluoropiperidin-4-yl)oxy)phenyl)pyridin-2-yl)-2-(1-methyl-1H-pyrazol-4-yl)cyclopropane-1-carboxamide] | 0.0061 µM | 0.0156 µM |
| N#Cc1cc(-c2ccnc(NC(=O)[C@H]3C[C@@H]3c3ccc(OC(F)(F)F)cc3)c2)ccc1OC1CCOCC1 (relative stereo) [Example 99, (1,2-trans)-N-(4-(3-cyano-4-((tetrahydro-2H-pyran-4-yl)oxy)phenyl)pyridin-2-yl)-2-(4-(trifluoromethoxy)phenyl)cyclopropane-1-carboxamide] | > 1 µM | > 1 µM |
| Cn1cc([C@@H]2C[C@H]2C(=O)Nc2cc(-c3ccc(O[C@H]4CCN(C(=O)CO)C[C@H]4F)c(C#N)c3)ccn2)cn1 (single isomer, unassigned) [Example 125] | 0.0189 µM | 0.0314 µM |
| N#Cc1cc(-c2ccnc(NC(=O)C3CC3)c2)ccc1N1CC[C@H](F)C1 [Example 18, (S)—N-(4-(3-cyano-4-(3-fluoropyrrolidin-1-yl)phenyl)pyridin-2-yl)cyclopropanecarboxamide] | 0.0203 µM | 0.0613 µM |
| N#Cc1cc(-c2cc(NC(=O)[C@@H]3C[C@H]3c3cccnc3)ncn2)ccc1O[C@H]1CCN(C(=O)CO)C[C@H]1F [Example 147, (1,2-Trans)-N-(6-(3-cyano-4-(((3R,4S)-3-fluoro-1-(2-hydroxyacetyl)piperidin-4-yl)oxy)phenyl)pyrimidin-4-yl)-2-(pyridin-3-yl)cyclopropane-1-carboxamide] | 0.0157 µM | 0.0365 µM |
| Cn1cc([C@@H]2C[C@H]2C(=O)Nc2cc(-c3ccc(OC4CCOCC4)c(C#N)c3)ccn2)cn1 (relative stereo) [Example 120, (1,2-Trans)-N-(4-(3-cyano-4-((tetrahydro-2H-pyran-4-yl)oxy)phenyl)pyridin-2-yl)-2-(1-methyl-1H-pyrazol-4-yl)cyclopropane-1-carboxamide] | 0.0291 µM | 0.181 µM |
| N#Cc1cc(-c2cc(NC(=O)C3CC3)ncn2)ccc1O[C@H]1CCNCC1(F)F [Example 25, (S)—N-(6-(3-cyano-4-((3,3-difluoropiperidin-4-yl)oxy)phenyl)pyrimidin-4-yl)cyclopropanecarboxamide] | 0.0933 µM | 0.297 µM |
| Cn1cc([C@@H]2C[C@H]2C(=O)Nc2cc(-c3ccc(O[C@H]4CCN(C(=O)CO)CC4(F)F)c(C#N)c3)ncn2)cn1 [Example 128, (1,2-Trans)-N-(6-(3-cyano-4-(((S)-3,3-difluoro-1-(2-hydroxyacetyl)piperidin-4-yl)oxy)phenyl)pyrimidin-4-yl)-2-(1-methyl-1H-pyrazol-4-yl)cyclopropane-1-carboxamide] | 0.0072 µM |  |
| Cn1cc([C@H]2C[C@@H]2C(=O)Nc2cc(-c3ccc(O[C@H]4CCN(C(=O)CO)CC4(F)F)c(C#N)c3)ncn2)cn1 [Example 138, (1S,2S)—N-(6-(3-cyano-4-(((S)-3,3-difluoro-1-(2-hydroxyacetyl)piperidin-4-yl)oxy)phenyl)pyrimidin-4-yl)-2-(1-methyl-1H-pyrazol-4-yl)cyclopropane-1-carboxamide] | 0.0059 µM |  |
| Cn1cc([C@@H]2C[C@H]2C(=O)Nc2cc(-c3ccc(O[C@H]4CCN(C(=O)CO)CC4(F)F)c(C#N)c3)ncn2)cn1 [Example 137, (1R,2R)—N-(6-(3-cyano-4-(((S)-3,3-difluoro-1-(2-hydroxyacetyl)piperidin-4-yl)oxy)phenyl)pyrimidin-4-yl)-2-(1-methyl-1H-pyrazol-4-yl)cyclopropane-1-carboxamide] | 0.0214 µM |  |

Source: patent US10316049B2, “Tank-binding kinase inhibitor compounds” (Gilead Sciences, Inc., priority 2015, dated 2019)
